The values that follow are results of earlier work, collected in patent US20190214145A1, “Method and systems for creating and screening patient metabolite profile to diagnose current medical condition, diagnose current treatment state and recommend new treatment regimen” (priority 2018, published 2019).

The conditions of data set [1]: vaporizing temperature.
In another data set the test system is submandibular gland. Conditions: rats, saliva from ducts of the submandibular gland.
The conditions of data set [2]: upon inhalation, even in low concentrations.
The conditions of data set [3]: intravenous, amount equivalent to one cannabis cigarette.

On to `CC12CCC(CC1)C(C)(C)O2` [1,8-cineole], for which, in data set [1], the BP is 176 °C.
`CCCCC/C=C\C/C=C\C/C=C\C/C=C\CCCC(=O)N[C@H](C)CO` [(R)-(+)-methanandamide]: in the data set on submandibular gland, the “Ca 2+ concentration of saliva” value is on record as “increase”, the “Other electrolytes of saliva” value is given as “no changes”, the Saliva flow rate entry is reported as “significant decrease” and the “Total protein content of saliva” value is on record as “increase”.
Regarding `O=c1cc(-c2ccc(O)cc2)oc2cc(O)cc(O)c12` [Apigenin], the BP in data set [1] is 178 °C.
On to `CC1(C)C2CCC1(C)C(O)C2` (centres unmarked) [Borneol], for which the BP in data set [1] is 210 °C.
Take `CCCCCc1cc2c(c(O)c1C(=O)O)C=CC(C)(CCC=C(C)C)O2` (centres unmarked) [CBCA]: the BP in data set [1] is 145 °C.
Regarding `CCCCCc1cc(O)c2c(c1)OC(C)(CCC=C(C)C)C=C2` (centres unmarked) [CBC], the BP in data set [1] is 220 °C.
For `C=C(C)[C@@H]1CCC(C)=C[C@H]1c1c(O)cc(CCCCC)cc1O` [CBD, reference compound], the BP in data set [1] was 180 °C.
In the case of `C=C(C)[C@@H]1CCC(C)=C[C@H]1c1c(O)cc(CCCCC)c(C(=O)O)c1O` [CBDA], the BP in data set [1] was 120 °C.
For `COc1cc(-c2cc(=O)c3c(O)c(C/C=C(\C)CCC=C(C)C)c(O)cc3o2)ccc1O` [Cannflavin A], the BP in data set [1] was 182 °C.
On to `CC(C)=CCCC(C)CCO` (centres unmarked) [Citronellol], for which the Sedation entry in data set [2] was “deeply sedating”.
In the case of `C=C(C)[C@H]1CC=C(C)CC1` [D-limonene], in data set [1], the BP is 177 °C.
For `CCCn1c(C)c(C(=O)c2cccc3ccccc23)c2ccccc21` [JWH015], in the data set on submandibular gland, the “Ca 2+ concentration of saliva” value was “increase”, the “Other electrolytes of saliva” value is reported as “no changes”, the Saliva flow rate result was “significant decrease” and the “Total protein content of saliva” value is given as “increase”.
Consider `C=CC(C)(O)CCC=C(C)C` (centres unmarked) [Linalool], for which the BP in data set [1] is 198 °C.
Regarding `Cc1ccc(C(C)C)cc1` [P-cymene], the BP in data set [1] is 177 °C.
Take `CC(C)=C1CC[C@@H](C)CC1=O` [Pulegone]: in data set [1], the BP was 224 °C.
Consider `CC1=CCC(O)(C(C)C)CC1` (centres unmarked) [Terpinol-4-ol], for which the BP in data set [1] is 209 °C.
For `Cc1c(C(=O)c2cccc3ccccc23)c2cccc3c2n1[C@H](CN1CCOCC1)CO3` [WIN55212-2T], in the data set on submandibular gland, the “Ca 2+ concentration of saliva” value is recorded as “increase”, the “Other electrolytes of saliva” value was “no changes”, the Saliva flow rate result is listed as “significant decrease” and the “Total protein content of saliva” value was “increase”.
`CCCCCc1cc2c(c(O)c1C(=O)O)[C@@H]1C=C(C)CC[C@H]1C(C)(C)O2` [Δ9THCA]: in data set [1], the BP is 104 °C.
As to `CCCCCc1cc(O)c2c(c1)OC(C)(C)[C@@H]1CCC(C)=C[C@@H]21` [Δ9THC], in data set [3], the Heart rate result is “significantly increases”, the “Phosphoenolpyruvate (PEP)” value was “decreases” and the “Systolic or diastolic arterial pressure” value is listed as “without any change”. The BP in data set [1] is 157 °C.
For the compound `CC1=CCC2C(C1)C2(C)C` (centres unmarked) [Δ-3-carene], in data set [1], the BP is 168 °C.
As for `CC1=CCC(C(C)(C)O)CC1` (stereo not drawn) [α-terpineol], the Sedation entry in data set [2] is “deeply sedating”. The BP in data set [1] was 217 °C.
As to `CC1=CC[C@@H](C(C)(C)O)CC1` [α-terpinol], the BP in data set [1] is 156 °C.
With `C=C1CC/C=C(\C)CC[C@@H]2[C@@H]1CC2(C)C` [β-caryophyllene], the BP in data set [1] was 199 °C.
Turning to `C=CC(=C)CCC=C(C)C` [β-myrcene], in data set [1], the BP was 167 °C.
In the case of `CC[C@H](CC[C@@H](C)[C@H]1CC[C@H]2[C@@H]3CC=C4C[C@@H](O)CC[C@]4(C)[C@H]3CC[C@]12C)C(C)C` [β-sitosterol], the BP in data set [1] was 134 °C.
